Measurements published in patent US20240262819A1, “NOVEL COMPOUNDS HAVING INHIBITORY ACTIVITY AGAINST GLUCOSYLCERAMIDE SYNTHASE OR PHARMACEUTICALLY ACCEPTABLE SALT THEREOF, PROCESSES FOR PREPARING THE SAME, AND PHARMACEUTICAL COMPOSITIONS COMPRISING THE SAME” (YUHAN CORPORATION, priority 2021, published 2024).

Key:
[1] = target: glucosylceramide synthase (GCS) (Homo sapiens (Human), UniProt Q16739); assay: Evaluation of inhibitory activities against GCS (A549 cell lysate, NBD C6-ceramide, HPLC); format: biochemical
Description: The inhibitory activities of the compounds of the present invention against GCS were evaluated, as follows, according to the method described in the known literature (Hayashi Y et al., A sensitive and reproducible assay to measure the activity of glucosylceramide synthase and lactosylceramide synthase using HPLC and fluorescent substrates, Analytical Biochemistry 345 (2005) 181-186). Ibiglustat, known as a GCS inhibitor, was used as a control.
After the cells attached to the culture dish were washed with phosphate buffered saline (PBS), the cells were scraped off with a cell scraper and then centrifuged (4000 rpm, 3 min, 4 °C) to collect the cells in a 50 ml tube. The cell pellets were suspended in a lysis buffer (50 mM HEPES, pH 7.3, containing 1× the protease/phosphatase inhibitor cocktail), lysed by sonication, and then the lysate was centrifuged (13000 rpm, 10 min, 4° C.). The obtained supernatant was used for the quantitative analysis of proteins. The amount of proteins was measured using the BCA protein assay kit, using bovine serum albumin as a standard.
Enzymatic reactions were initiated by sequentially adding the following reaction materials to a 96 deep-well plate. Thereafter, the enzymatic reactions were performed at 37° C. for 90 minutes.
The enzymatic reactions were stopped by adding 100 μl of chloroform/methanol (2:1, v/v). […] The lower layer (50 μl) was transferred to a new 96 deep-well plate and dried with a reduced concentrator.
Lipids were dissolved in 100 μl of isopropyl alcohol/n-hexane/H2O (55:44:1, v/v/v) and then transferred to a glass vial for HPLC (Agilent, 8004-HP-H/i3u). The sample (100 μl) was automatically loaded onto a normal-phase column (Intersil SIL 150A-5, 4.6×250 mm, GL Sciences, Japan) and then eluted at a flow rate of 2.0 ml/min with isopropyl alcohol/n-hexane/H2O (55:44:1, v/v/v). The fluorescence thereof was measured with a fluorescence detector (Agilent, 1260 FLD Spectra), using 470 nm and 530 nm as excitation and emission wavelengths, respectively.
Data analysis was performed by the following equations.
% Area (Sample)=Area (GlcCer)/[Area (Cer)+Area (GlcCer)]×100%
GCS activity=[Area (Sample)−Area (ibiglustat)]/[Area (DMSO)−Area (ibiglustat)]×100
The obtained % GCS activity data was analyzed with the software GraphPad Prism (Ver 5.01) to calculate the IC50 values.

[2] = test system: GM1 production in Jurkat cells; assay: cells; format: cell-based; conditions: Homo sapiens, Jurkat, 72 h

glucosylceramide synthase (GCS), sequence (Q16739 whole entry): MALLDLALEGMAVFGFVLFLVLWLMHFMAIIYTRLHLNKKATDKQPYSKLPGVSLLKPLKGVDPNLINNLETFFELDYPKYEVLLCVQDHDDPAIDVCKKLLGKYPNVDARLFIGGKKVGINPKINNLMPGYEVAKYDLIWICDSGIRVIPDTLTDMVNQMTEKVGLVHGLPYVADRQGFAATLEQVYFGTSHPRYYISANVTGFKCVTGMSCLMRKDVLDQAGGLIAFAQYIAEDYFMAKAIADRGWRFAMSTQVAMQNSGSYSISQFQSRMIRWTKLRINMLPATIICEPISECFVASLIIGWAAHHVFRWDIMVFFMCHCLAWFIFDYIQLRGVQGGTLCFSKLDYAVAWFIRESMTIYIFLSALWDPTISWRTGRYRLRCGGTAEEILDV

| SMILES | IC50 [1] | IC50 [2] |
| --- | --- | --- |
| CCCCOc1ccc(-c2cc3c(cc2F)[C@H](NC(=O)O[C@@H]2CN4CCC2CC4)C(C)(C)C3)cc1Cl [Example 88, (S)-quinuclidin-3-yl((R)-5-(4-butoxy-3-chlorophenyl)-6-fluoro-2,2-dimethyl-2,3-dihydro-1H-inden-1-yl)carbamate] | 0.779 nM | 21.1 nM |
| CCCOc1ccc(-c2cc3c(cc2F)[C@H](NC(=O)O[C@@H]2CN4CCC2CC4)C(C)(C)C3)cc1F [Example 91, (S)-quinuclidin-3-yl((R)-6-fluoro-5-(3-fluoro-4-propoxyphenyl)-2,2-dimethyl-2,3-dihydro-1H-inden-1-yl)carbamate] | 0.329 nM | 10.7 nM |
| CCc1ccc(-c2cc3c(cc2F)[C@H](NC(=O)O[C@@H]2CN4CCC2CC4)C(C)(C)C3)cc1F [Example 93, (S)-quinuclidin-3-yl((R)-5-(4-ethyl-3-fluorophenyl)-6-fluoro-2,2-dimethyl-2,3-dihydro-1H-inden-1-yl)carbamate] | 0.37 nM | 5.6 nM |
| Cc1cc(-c2cc3c(cc2F)[C@H](NC(=O)O[C@@H]2CN4CCC2CC4)C(C)(C)C3)ccc1OC(C)C [Example 94, (S)-quinuclidin-3-yl((R)-6-fluoro-5-(4-isopropoxy-3-methylphenyl)-2,2-dimethyl-2,3-dihydro-1H-inden-1-yl)carbamate] | 0.52 nM | 12.1 nM |
| COc1cc(-c2cc3c(cc2F)[C@H](NC(=O)O[C@@H]2CN4CCC2CC4)C(C)(C)C3)ccc1OC(C)C [Example 95, (S)-quinuclidin-3-yl((R)-6-fluoro-5-(4-isopropoxy-3-methoxyphenyl)-2,2-dimethyl-2,3-dihydro-1H-inden-1-yl)carbamate] | 1.14 nM | 18.2 nM |
| CC(C)Oc1c(F)cc(-c2cc3c(cc2F)[C@H](NC(=O)O[C@@H]2CN4CCC2CC4)C(C)(C)C3)cc1F [Example 97, (S)-quinuclidin-3-yl((R)-5-(3,5-difluoro-4-isopropoxyphenyl)-6-fluoro-2,2-dimethyl-2,3-dihydro-1H-inden-1-yl)carbamate] | 1.06 nM | 13 nM |
| CC1(C)Cc2cc(-c3ccc(OCC4CC4)cc3Cl)c(F)cc2[C@@H]1NC(=O)O[C@@H]1CN2CCC1CC2 [Example 98, (S)-quinuclidin-3-yl((R)-5-(2-chloro-4-(cyclopropylmethoxy)phenyl)-6-fluoro-2,2-dimethyl-2,3-dihydro-1H-inden-1-yl)carbamate] | 0.06 nM | 0.2 nM |
| CC1(C)Cc2cc(-c3ccc(OCC4CC4)c(Cl)c3)c(F)cc2[C@@H]1NC(=O)O[C@@H]1CN2CCC1CC2 [Example 99, (S)-quinuclidin-3-yl((R)-5-(3-chloro-4-(cyclopropylmethoxy)phenyl)-6-fluoro-2,2-dimethyl-2,3-dihydro-1H-inden-1-yl)carbamate] | 0.67 nM | 8.84 nM |
| CC(C)Oc1c(Cl)cc(-c2cc3c(cc2F)[C@H](NC(=O)O[C@@H]2CN4CCC2CC4)C(C)(C)C3)cc1Cl [Example 100, (S)-quinuclidin-3-yl((R)-5-(3,5-dichloro-4-isopropoxyphenyl)-6-fluoro-2,2-dimethyl-2,3-dihydro-1H-inden-1-yl)carbamate] | 4.58 nM | 16.2 nM |
| CC(C)(C)Oc1ccc(-c2cc3c(cc2F)[C@H](NC(=O)O[C@@H]2CN4CCC2CC4)C(C)(C)C3)cc1 [Example 101, (S)-quinuclidin-3-yl((R)-5-(4-(tert-butoxy)phenyl)-6-fluoro-2,2-dimethyl-2,3-dihydro-1H-inden-1-yl)carbamate] | 0.38 nM | 4.67 nM |
| CC(C)(C)Oc1ccc(-c2cc3c(cc2F)[C@H](NC(=O)O[C@@H]2CN4CCC2CC4)C(C)(C)C3)c(Cl)c1 [Example 102, (S)-quinuclidin-3-yl((R)-5-(4-(tert-butoxy)-2-chlorophenyl)-6-fluoro-2,2-dimethyl-2,3-dihydro-1H-inden-1-yl)carbamate] | 0.19 nM | 1.6 nM |
| CCOc1ccc(-c2cc3c(cc2F)[C@H](NC(=O)O[C@@H]2CN4CCC2CC4)C(C)(C)C3)cc1C [Example 105, (S)-quinuclidin-3-yl((R)-5-(4-ethoxy-3-methylphenyl)-6-fluoro-2,2-dimethyl-2,3-dihydro-1H-inden-1-yl)carbamate] | 0.72 nM | 8.2 nM |
| CCCOc1ccc(-c2cc3c(cc2F)[C@H](NC(=O)O[C@@H]2CN4CCC2CC4)C(C)(C)C3)cc1C [Example 106, (S)-quinuclidin-3-yl((R)-6-fluoro-2,2-dimethyl-5-(3-methyl-4-propoxyphenyl)-2,3-dihydro-1H-inden-1-yl)carbamate] | 0.61 nM | 2.3 nM |
| Cc1cc(-c2cc3c(cc2F)[C@H](NC(=O)O[C@@H]2CN4CCC2CC4)C(C)(C)C3)ccc1OC(F)F [Example 107, (S)-quinuclidin-3-yl((R)-5-(4-(difluoromethoxy)-3-methylphenyl)-6-fluoro-2,2-dimethyl-2,3-dihydro-1H-inden-1-yl)carbamate] | 0.93 nM | 16 nM |
| CC(C)Oc1cc(F)cc(-c2cc3c(cc2F)[C@H](NC(=O)O[C@@H]2CN4CCC2CC4)C(C)(C)C3)c1 [Example 108, (S)-quinuclidin-3-yl((R)-6-fluoro-5-(3-fluoro-5-isopropoxyphenyl)-2,2-dimethyl-2,3-dihydro-1H-inden-1-yl)carbamate] | 1.06 nM | 31.6 nM |
| CC(C)COc1cc(F)cc(-c2cc3c(cc2F)[C@H](NC(=O)O[C@@H]2CN4CCC2CC4)C(C)(C)C3)c1 [Example 109, (S)-quinuclidin-3-yl((R)-6-fluoro-5-(3-fluoro-5-isobutoxyphenyl)-2,2-dimethyl-2,3-dihydro-1H-inden-1-yl)carbamate] | 0.69 nM | 11.5 nM |
| CC1(C)Cc2cc(-c3cc(F)cc(OCC(F)(F)F)c3)c(F)cc2[C@@H]1NC(=O)O[C@@H]1CN2CCC1CC2 [Example 110, (S)-quinuclidin-3-yl((R)-6-fluoro-5-(3-fluoro-5-(2,2,2-trifluoroethoxy)phenyl)-2,2-dimethyl-2,3-dihydro-1H-inden-1-yl)carbamate] | 1.05 nM | 28 nM |
| CC(C)Oc1cc(-c2cc3c(cc2F)[C@H](NC(=O)O[C@@H]2CN4CCC2CC4)C(C)(C)C3)ccc1Cl [Example 111, (S)-quinuclidin-3-yl((R)-5-(4-chloro-3-isopropoxyphenyl)-6-fluoro-2,2-dimethyl-2,3-dihydro-1H-inden-1-yl)carbamate] | 7.13 nM | 76.2 nM |
| CC(C)COc1cc(Cl)cc(-c2cc3c(cc2F)[C@H](NC(=O)O[C@@H]2CN4CCC2CC4)C(C)(C)C3)c1 [Example 112, (S)-quinuclidin-3-yl((R)-5-(3-chloro-5-isobutoxyphenyl)-6-fluoro-2,2-dimethyl-2,3-dihydro-1H-inden-1-yl)carbamate] | 1.03 nM | 10.6 nM |
| CC(C)Oc1cc(Cl)cc(-c2cc3c(cc2F)[C@H](NC(=O)O[C@@H]2CN4CCC2CC4)C(C)(C)C3)c1 [Example 113, (S)-quinuclidin-3-yl((R)-5-(3-chloro-5-isopropoxyphenyl)-6-fluoro-2,2-dimethyl-2,3-dihydro-1H-inden-1-yl)carbamate] | 0.62 nM | 11.5 nM |
| CC1(C)Cc2cc(-c3ccc(OCC(F)(F)F)cc3Cl)c(F)cc2[C@@H]1NC(=O)O[C@@H]1CN2CCC1CC2 [Example 114, (S)-quinuclidin-3-yl((R)-5-(2-chloro-4-(2,2,2-trifluoroethoxy)phenyl)-6-fluoro-2,2-dimethyl-2,3-dihydro-1H-inden-1-yl)carbamate] | 0.2 nM | 1.7 nM |
| CCc1ccc(-c2cc3c(cc2C)[C@H](NC(=O)O[C@@H]2CN4CCC2CC4)C(C)(C)C3)cc1 [Example 115, (S)-quinuclidin-3-yl((R)-5-(4-ethylphenyl)-2,2,6-trimethyl-2,3-dihydro-1H-inden-1-yl)carbamate] | 0.43 nM | 5.09 nM |
| CCCc1ccc(-c2cc3c(cc2C)[C@H](NC(=O)O[C@@H]2CN4CCC2CC4)C(C)(C)C3)cc1 [Example 116, (S)-quinuclidin-3-yl((R)-2,2,6-trimethyl-5-(4-propylphenyl)-2,3-dihydro-1H-inden-1-yl)carbamate] | 0.31 nM | 3.82 nM |
| Cc1cc2c(cc1-c1ccc(C(C)C)cc1)CC(C)(C)[C@H]2NC(=O)O[C@@H]1CN2CCC1CC2 [Example 117, (S)-quinuclidin-3-yl((R)-5-(4-isopropylphenyl)-2,2,6-trimethyl-2,3-dihydro-1H-inden-1-yl)carbamate] | 0.47 nM | 4.42 nM |
